Structures are written as SMILES.

What all share (type): cell-based, Murine
The test system of test [1] is MSCs. The test is described as follows: YAP localization in MSCs confined on fibronectin line patterns treated with modulators of nuclear import. The settings on record: for YAP Ratio with increasing Kmax XY: fibronectin line patterns 1.5-8 μm, Pitstop2 30 μM 1 hour; for nuclear YAP on thick (8 μm) and thin (1.5 μm) line patterns: microscopy, FIGS. 15B-15D. As for the experimental part:
Glass coverslips were adhesively micropatterned on 22*22 mm no. 1 with a UV-based patterning system (PRIMO, Alveole Lab, Paris, France). Glass coverslips were incubated with Poly-L-Lysine (PLL, Sigma) solution (5 mg/mL) prepared in 0.1 M HEPES buffer (pH 8.5) for 1 hour at room temperature, followed by rinsing with MiliQ™ water. Positively charged PLL electrostatically adsorbed onto the negatively charged surface of silicone substrates and allowed protein attachment after printing. The coverslips were then incubated with Polyethylene glycol valeric acid (PEG-SVA, Laysan Bio) prepared in 0.1 M HEPES buffer (pH 8.5) for 30 minutes at room temperature, followed by thorough rinsing with phosphate buffer saline (PBS) pH 7. PEG-SVA acts as an antifouling brush layer that repels protein attachment. The coverslips were then covered with the UV sensitive photo-initiator solution of PLPP (Alveole Lab, Paris, France) and placed on the stage of a microscope (Nikon Ti2 Eclipse) equipped with the UV-patterning system.
To generate the patterns, open-source graphics software programs were used, Inkscape and ImageJ, to generate binary 8-bit mask image files that were loaded into PRIMO's control software. The desired pattern was generated by a digital micromirror array in the PRIMO system and projected using a 375 nm UV laser with an intensity of 29 mW/mm^2 via 20×/0.45NA objective. The projected pattern results in localized photodegradation of the antifouling PEG-SVA brush, in the shape of the desired pattern. An exposure dose of 20 seconds was adequate to complete photodegradation of the PEG-SVA brush. Following UV exposure, the coverslips were washed with PBS and incubated them for 1 hr at room temperature with 40 μg/mL fibronectin (Sigma) in PBS to adsorb the protein to the exposed PLL surface. Excess protein was rinsed off with PBS 3 times prior to cell seeding.
(§1) To observe endogenous YAP localization, the MSCs were fixed with 4% paraformaldehyde for 15 min in room temperature and washed 3 times with PBS. The cells were permeabilized with 0.1% Triton X-100 diluted in PBS for 10 minutes. To avoid any nonspecific binding, cells were incubated with 1% bovine serum albumin (BSA) in PBS for 30 minutes at room temperature. To visualize YAP, cells were first incubated with 10 μg/ml Anti-YAP1 mouse monoclonal antibody (ab56701, Abcam™) diluted in 1% BSA in PBS overnight, followed by PBS wash and 1 hour incubation with 10 μg/ml Donkey Anti-Mouse IgG H&L (Alexa Fluor™ 647) secondary antibody (ab150107, Abcam™) diluted in 1% BSA in PBS. For nuclear characterization, nuclei were stained with 10 μg/ml Bisbenzimide Hoechst 33342 trihydrochloride (Sigma™) in PBS for 20 minutes, cells were washed with PBS.
To identify the mechanisms involved in YAP localization via nuclear curvature, MSCs were confined on fibronectin line patterns of decreasing thickness and then exposed to various drugs that manipulate active and passive nuclear import mechanisms. Finally, MSCs were fixed and stained with Anti-YAP1 antibody and Hoechst as explained above. To inhibit active nuclear import, MSCs were treated with 40 μM Importazole (cayman chemicals) for 1 hour, it inhibits importinβ/Ran GTP nuclear import pathway. For inhibiting both active and passive nuclear import, MSCs were treated with 30 μM Pitstop2 (abcam) for 1 hour, it disrupts nuclear pore complex structure and blocks nuclear pores. […]

For test [2], the system named is MSCs transfected with Nesprin 2G tension sensor. The test is described as follows: Nesprin 2G FRET tension sensor, nuclear membrane tension in MSCs. The conditions noted are these: before versus after actin depolymerization. From the text: To measure nuclear membrane tension, MSCs were co-transfected Nesprin tension sensor (pcdna nesprin TS, 68127, Addgene) and iRFP-YAP plasmid. Nesprin tension sensors are fluorescent resonance energy transfer-based tension biosensors for nesprin 2G, a structural protein at the LINC complex, which links actin cytoskeleton to the nucleus. For control experiments, MSCs were transfected with Nesprin headless control (pcdna nesprin HL, 68128, Addgene), which lacks the actin-binding domain and is localized on the nuclear membrane. […]
All the image processing and analysis was performed on open-source Image J software. […] Ratio images were calculated by dividing the unmixed venus channel by the unmixed teal channel. For each image, binary masks were manually created in ImageJ to exclude pixels outside of the nuclear membrane as determined by the mVenus channel. […] Local FRET intensity and local curvature were measured using Kappa Curvature Analysis plugin in Image J. In brief, the 2D FRET images were opened in Kappa Curvature Analysis plugin and using a selection tool, points were manually selected across the nuclear membrane and a closed curvature fit was performed. […]

Test [3] has as its system MSCs. The test is described as follows: Cytochalasin D treatment: endogenous YAP localization and nuclear deformation in MSCs on fibronectin-coated glass coverslips. The settings on record: versus wildtype MSCs. As for the experimental part:
For YAP localization measurements MSCs were imaged in two channels one for iRFP YAP transfected or Alexa 647 conjugated secondary antibody-stained cells (Ex 647 nm laser) and other for Hoechst-stained nuclei (Ex 405 nm laser). The principal metric for YAP quantification was the ratio of fluorescence of iRFP YAP in the nucleus to iRFP YAP in the cytoplasm and is referred to as the YAP Ratio. Image segmentation was performed using a custom MATLAB code, that segments the nucleus from Hoechst and cytoplasm from YAP and measures the ratio of total iRFP YAP fluorescence inside the nucleus to total iRFP YAP fluorescence in the cytoplasm.
as §1
To study the role of nuclear deformation in YAP localization, XYZ stacks of Hoechst-stained nuclei of iRFP YAP transfected MSCs were captured using confocal microscope (Leica TCS SP8, 63× objective) with a closed pinhole 0.5 AU and thin Z step size of 0.3 μm. All the XYZ stacks were analyzed using a custom MATLAB code that measures nuclear volumes, surface area, height, major axis, minor axis, and curvature. In brief, the three-dimensional XYZ stacks were, preprocessed by background subtraction threshold, and binarization. The nuclear volumes, surface area, height, major axis, and minor axis were first measured in pixels using regionprops3™ in MATLAB, which were then converted to microns. Nuclear flatness, Nuclear Eccentricity and Nuclear Aspect Ratio were measured using the following equations: […]
For nuclear curvature analysis, XYZ stacks of Hoechst-stained nuclei were resliced into 2D image sections in XY, XZ and YZ directions. For each resliced 2D nuclear image, curvature was measured across the nuclear boundary, using a curvature function in MATLAB. […] This provided us with distribution of curvature values of the complete nucleus quantified from resliced nuclear images in all three dimensions of XY, XZ and YZ separately (FIGS. 9A-9L). […]

The mark [4] stands for this setting: Importazole 40 μM 1 hour, trans-1,2-Cyclohexanediol 258 mM 5 mins.
Setting [5] is: 1.5 μM for 2 hours, fibronectin-coated glass coverslips.

In the case of `CC(Nc1nc(N2CCCC2)nc2ccccc12)c1ccccc1` (stereo not shown) [importazole, Importazole], the “YAP Ratio with increasing Kmax XY” value in the test on MSCs [1] (setting [4]) was “small increase in YAP ratios with increasing Kmax XY”. The “YAP Ratio compared with untreated MSCs” value in the test with MSCs [1] (fibronectin line patterns, Importazole 40 μM 1 hour, trans-1,2-Cyclohexanediol 258 mM 5 mins) is “substantially less than untreated MSCs”. Moreover, the “nuclear YAP on thick (8 μm) and thin (1.5 μm) line patterns” value with MSCs [1] was “low nuclear YAP on both thick (8 μm) and thin line patterns (1.5 μm)”.
As to `O=C1NC(=NS(=O)(=O)c2cccc3ccccc23)S/C1=C\c1ccc(Br)cc1` [Pitstop2], the “YAP Ratio with increasing Kmax XY” value in the test on MSCs [1] (setting [4]) is reported as “complete inhibition of curvature influenced YAP Ratio”. In addition, the “nuclear YAP on thick (8 μm) and thin (1.5 μm) line patterns” value in the test with MSCs [1] is “low nuclear YAP on both thick (8 μm) and thin (1.5 μm) line patterns”.
Turning to `C=C1[C@@H](C)[C@H]2[C@H](Cc3ccccc3)NC(=O)[C@]23[C@H](OC(C)=O)/C=C/[C@@](C)(O)C(=O)[C@@H](C)C/C=C/[C@H]3[C@@H]1O` [Cytochalasin D], the “FRET intensity (increase = decrease in nuclear membrane tension)” value in test [2] was “increase in FRET intensity”. Further, the “YAP Ratio (nuclear to cytoplasmic YAP, endogenous, anti-YAP antibody)” value in the test on MSCs [3] (setting [5]) was “low YAP ratio”; with MSCs [3] (1.5 μM for 2 hours, fibronectin-coated glass coverslips, listed as Cyto D) it was “lower YAP Ratios”. The nuclear volume entry in the test with MSCs [3] (setting [5]) is recorded as “high nuclear volumes”. Moreover, the “maximum nuclear curvature (Kmax XZ) / nuclear curvature distribution” value in the test on MSCs [3] (Hoechst-stained nuclei, XYZ stacks, listed as Cyto D) was “lower maximum curvature in XZ”.

The record behind these values is patent US20240344029A1, “STEM CELL DIFFERENTIATION BY CONTROLLING NUCLEAR CURVATURE” (THE ROYAL INSTITUTION FOR THE ADVANCEMENT OF LEARNING / …, priority 2023, published 2024).
